Series [1] has as its system MIA PaCa-2. The series can be described thus: Induction of apoptosis in human MIA PaCa-2 cells harboring KRAS mutant assessed as early apoptotic cells at 1 uM measured after 24 hrs by Annexin V-FITC/PI staining based flow cytometric analysis (Rvb= 4.62%). Type of series: functional. Background: In flow cytometry, cells or beads pass a laser one at a time.
In series [2] the test system is MIA PaCa-2. The series can be described thus: Induction of apoptosis in human MIA PaCa-2 cells harboring KRAS mutant assessed as late apoptotic cells at 10 uM measured after 24 hrs by Annexin V-FITC/PI staining based flow cytometric analysis (Rvb= 10.56%). Type of series: functional.
For series [3], the system named is MIA PaCa-2. The series can be described thus: Induction of apoptosis in human MIA PaCa-2 cells harboring KRAS mutant assessed as necrotic cells at 1 uM measured after 24 hrs by Annexin V-FITC/PI staining based flow cytometric analysis (Rvb= 0.3%). Type of series: functional.
Series [4] has as its system MIA PaCa-2. Kind of series: Induction of apoptosis in human MIA PaCa-2 cells harboring KRAS mutant assessed as early apoptotic cells at 10 uM measured after 24 hrs by Annexin V-FITC/PI staining based flow cytometric analysis (Rvb= 4.62%). The format is functional.
A further series concerns CAPAN-1. The series can be described thus: Antiproliferative activity against human CAPAN-1 cells harboring KRAS mutant assessed as reduction in cell proliferation incubated for 72 hrs by CCK-8 assay. As to conditions: CAPAN-1, 72 h.
Series [5] deals with MIA PaCa-2. The series can be described thus: Induction of apoptosis in human MIA PaCa-2 cells harboring KRAS mutant assessed as late apoptotic cells at 1 uM measured after 24 hrs by Annexin V-FITC/PI staining based flow cytometric analysis (Rvb= 10.56%). The format is functional.
In series [6] the test system is MIA PaCa-2. Kind of series: Induction of apoptosis in human MIA PaCa-2 cells harboring KRAS mutant assessed as necrotic cells at 10 uM measured after 24 hrs by Annexin V-FITC/PI staining based flow cytometric analysis (Rvb= 0.3%). The format is functional.
Series [7] has as its system MIA PaCa-2. Kind of series: Antiproliferative activity against human MIA PaCa-2 cells harboring KRAS mutant assessed as reduction in cell proliferation incubated for 72 hrs by CCK-8 assay. As to conditions: MIA PaCa-2, 72 h. (Tetrazolium assays rely on reduction of a dye to a coloured formazan, in cell work by metabolically active cells.)
Series [8] deals with MIA PaCa-2. The series can be described thus: Effect on PDEdelta mRNA expression in human MIA PaCa-2 cells measured after 24 hrs by RT-qPCR analysis. The format is functional, cell-based.
Series [9] can be described thus: Drug uptake in lysosome of human HeLa cells assessed as drug fusion by measuring red fluorescence pretreated with compound for 2 hrs followed by probe administration and measured after 1.5 hrs by fluorescence imaging analysis. Type of series: ADME, subcellular. As to conditions: 3.5 h.
Series [10] can be described thus: Drug localization in lysosome of human HeLa cells assessed as green fluorescence pretreated with compound for 2 hrs followed by probe administration and measured after 1.5 hrs by fluorescence imaging analysis. The settings on record: 3.5 h. The format is ADME, subcellular.

Drawing on ChEMBL document CHEMBL5357016, “Discovery of Novel PDEδ Autophagic Degraders: A Case Study of Autophagy-Tethering Compound (ATTEC)” (ACS Med Chem Lett, 2024), this text covers Activity, IC50 and Drug uptake for three compounds.

Structures are written as SMILES. The source made the active and inactive calls. The rule behind the calls is not given here.

Take `Cc1ccc(-n2nc3c(=O)n(CCCC(=O)NCCCCCCNC(=O)COc4c(Br)cc(/C=C5\C(=O)Nc6ccc(I)cc65)cc4Br)nc(C)c3c2C)cc1`: the Activity with MIA PaCa-2 [1] came out at 3.8%; with MIA PaCa-2 [2], 23.49%; in the series with MIA PaCa-2 [3], 0.43%; in the series with MIA PaCa-2 [4] it was 9.76%; with MIA PaCa-2 [5] it was 18.43%; with MIA PaCa-2 [6], 11.64%. Moreover, the figures for the 50% inhibitory concentration (IC50) in the series with CAPAN-1 and with MIA PaCa-2 [7] were 800 nM and 1400 nM, respectively. Further, the outcome in the series on MIA PaCa-2 [8] was inactive.
As to `O=C(COc1c(Br)cc(/C=C2\C(=O)Nc3ccc(I)cc32)cc1Br)NCCCOCCOCCOCCCNC(=S)Nc1ccc2c(c1)C(=O)OC21c2ccc(O)cc2Oc2cc(O)ccc21`, the Drug uptake entry in series [9] and in [10] was “Active” throughout.
`Cc1ccc(-n2nc3c(=O)n(CCCC(=O)NCCOCCOCCNC(=O)COc4c(Br)cc(/C=C5\C(=O)Nc6ccc(I)cc65)cc4Br)nc(C)c3c2C)cc1`: the IC50 with CAPAN-1 turned out to be 3500 nM; with MIA PaCa-2 [7] it was 25000 nM.

The IC50 is the concentration at which inhibition is half-maximal.
